ChEMBL document CHEMBL6078648, “Prioritization of Eleven-Nineteen-Leukemia Inhibitors as Orally Available Drug Candidates for Acute Myeloid Leukemia” (J Med Chem, 2024)
Values belong to the compound of their own block, whether it stands above or below them. Active and inactive are the calls of the source. The rule behind the calls is not given here.

Experiments:
[1] = Metabolic stability in human plasma assessed as parent compound remaining measured after 1 hrs by HPLC-MS/MS analysis; format: ADME, cell-free
[2] = Cytotoxicity against human HEK293T cells assessed as cell viability incubated for 8 days by CCK-8 assay; format: toxicity, cell-based, HEK-293T; conditions: time 8 day
[3] = system: Jurkat; assay: Antiproliferative activity against human Jurkat cells assessed as reduction in cell proliferation at 1 uM measured upto 2 weeks; format: functional, cell-based
[4] = system: MOLM-13; assay: Downregulation of MEISI expression in human MOLM-13 cells at 1 uM measured for 72 hrs by qRT-PCR analysis; format: functional, cell-based
[5] = Toxicity in NSG mouse implanted with human MOLM-13 assessed as tolerability at 200 mg/kg, po qd measured every 2 to 3 days; format: organism-based; conditions: in vivo, time 2-3 day
[6] = system: MOLM-13; assay: Antitumor activity against human MOLM-13 cells xenografted in NSG mouse assessed as reduction in tumor growth at 200 mg/kg, po qd measured after 13 days; format: functional, organism-based; conditions: time 13.0 day
[7] = Toxicity in NSG mouse implanted with human MOLM-13 assessed as body weight loss at 400 mg/kg, po qd measured every 2 to 3 days and measured at day 15; format: organism-based; conditions: in vivo, 360 h, time 15 day
[8] = system: MV4-11; assay: Downregulation of MYB expression in human MV4-11 cells at 1 uM measured for 72 hrs by qRT-PCR analysis; format: functional, cell-based
[9] = Toxicity in NSG mouse implanted with human MOLM-13 assessed as animal survival at 400 mg/kg, po qd measured every 2 to 3 days and measured at day 15; format: organism-based; conditions: in vivo, 360 h, time 15 day
[10] = Half life in CD-1 mouse at 20 mg/kg, iv measured upto 24 hrs by HPLC-MS/MS analysis; format: ADME, organism-based; conditions: in vivo
[11] = system: Jurkat; assay: Cytotoxicity against human Jurkat cells assessed as reduction in cell viability at 16 uM incubated for 8 days by CCK-8 assay; format: functional, cell-based; conditions: time 8.0 day
[12] = Metabolic stability in human plasma assessed as parent compound remaining measured after 2 hrs by HPLC-MS/MS analysis; format: ADME, cell-free
[13] = system: Jurkat; assay: Cytotoxicity against human Jurkat cells assessed as reduction in cell viability at 10 uM incubated for 8 days by CCK-8 assay; format: functional, cell-based; conditions: time 8.0 day
[14] = system: MV4-11; assay: Induction of cell cycle arrest in human MV4-11 cells assessed as increase in accumulation of cells at G1 phase at 1 to 10 uM incubated for 72 hrs by PI staining based flow cytometric analysis; format: functional; conditions: dose 1-10 µM
[15] = Toxicity in NSG mouse implanted with human MOLM-13 assessed as body weight loss at 200 mg/kg, po qd measured every 2 to 3 days; format: organism-based; conditions: in vivo, time 2-3 day
[16] = system: MOLM-13; assay: Antitumor activity against human MOLM-13 cells xenografted in NSG mouse assessed as reduction in tumor burden at 400 mg/kg, po qd measured after 13 days; format: functional, organism-based; conditions: time 13.0 day
[17] = system: HEK-293T; assay: Cytotoxicity against HEK293T cells assessed as reduction in cell viability at 16 uM incubated for 8 days by CCK-8 assay; format: toxicity, cell-based; conditions: human, 192 h, time 8 day
[18] = system: MV4-11; assay: Downregulation of HOXA10 expression in human MV4-11 cells at 1 uM measured for 72 hrs by qRT-PCR analysis; format: functional, cell-based
[19] = system: MOLM-13; assay: Induction of cell cycle arrest in human MOLM-13 cells assessed as increase in accumulation of cells at G1 phase at 1 to 10 uM incubated for 72 hrs by PI staining based flow cytometric analysis; format: functional; conditions: dose 1-10 µM
[20] = biological target: T1, Protein ENL (Homo sapiens) (UniProt Q03111); assay: Binding affinity to ENL in human MV4-11 cells assessed as increase in protein thermal stabilization at 10 uM incubated for 3 to 6 hrs by CETSA analysis; format: cell-based; conditions: time 3-6 hrs
T1 sequence (whole entry): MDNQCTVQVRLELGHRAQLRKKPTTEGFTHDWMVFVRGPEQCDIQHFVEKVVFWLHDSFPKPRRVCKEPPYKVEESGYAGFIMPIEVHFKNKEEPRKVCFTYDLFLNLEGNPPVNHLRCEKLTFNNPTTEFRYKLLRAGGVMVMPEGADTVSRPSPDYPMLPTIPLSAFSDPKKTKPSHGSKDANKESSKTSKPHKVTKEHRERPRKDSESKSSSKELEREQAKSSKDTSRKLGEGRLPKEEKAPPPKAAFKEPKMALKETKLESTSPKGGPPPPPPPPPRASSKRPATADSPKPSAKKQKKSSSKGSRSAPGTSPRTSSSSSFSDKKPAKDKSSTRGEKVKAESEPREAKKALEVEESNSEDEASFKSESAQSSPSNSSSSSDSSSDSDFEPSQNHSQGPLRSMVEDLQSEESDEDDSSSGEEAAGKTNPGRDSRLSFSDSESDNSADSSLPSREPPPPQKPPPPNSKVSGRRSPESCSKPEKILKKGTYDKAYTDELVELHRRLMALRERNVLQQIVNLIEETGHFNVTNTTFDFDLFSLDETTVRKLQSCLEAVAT

[21] = system: MOLM-13; assay: Cytotoxicity against human MOLM-13 cells assessed as cell viability upto 100 uM incubated for 72 hrs by CCK-8 assay; format: functional, cell-based
[22] = system: MOLM-13; assay: Downregulation of HOXA9 expression in human MOLM-13 cells at 1 uM measured for 72 hrs by qRT-PCR analysis; format: functional, cell-based
[23] = system: MV4-11; assay: Downregulation of MYC expression in human MV4-11 cells at 1 uM measured for 72 hrs by qRT-PCR analysis; format: functional, cell-based
[24] = system: MV4-11; assay: Downregulation of MEISI expression in human MV4-11 cells at 1 uM measured for 72 hrs by qRT-PCR analysis; format: functional, cell-based
[25] = system: Jurkat; assay: Cytotoxicity against human Jurkat cells assessed as cell viability incubated for 72 hrs by CCK-8 assay; format: functional
[26] = system: HEK-293T; assay: Cytotoxicity against HEK293T cells assessed as reduction in cell viability at 10 uM incubated for 8 days by CCK-8 assay; format: toxicity, cell-based; conditions: human, 192 h, time 8 day
[27] = system: MV4-11; assay: Downregulation of HOXA9 expression in human MV4-11 cells at 1 uM measured for 72 hrs by qRT-PCR analysis; format: functional, cell-based
[28] = biological target: T1, Protein ENL (Homo sapiens); assay: Binding affinity to ENL in human MOLM-13 cells assessed as increase in protein thermal stabilization at 10 uM incubated for 3 to 6 hrs by CETSA analysis; format: cell-based; conditions: time 3-6 hrs
[29] = system: MV4-11; assay: Cytotoxicity against human MV4-11 cells assessed as cell viability upto 100 uM incubated for 72 hrs by CCK-8 assay; format: functional, cell-based
[30] = system: MOLM-13; assay: Downregulation of MYC expression in human MOLM-13 cells at 1 uM measured for 72 hrs by qRT-PCR analysis; format: functional, cell-based
[31] = system: MOLM-13; assay: Downregulation of HOXA10 expression in human MOLM-13 cells at 1 uM measured for 72 hrs by qRT-PCR analysis; format: functional, cell-based
[32] = system: MOLM-13; assay: Downregulation of MYB expression in human MOLM-13 cells at 1 uM measured for 72 hrs by qRT-PCR analysis; format: functional, cell-based
[33] = Metabolic stability in mouse liver microsome assessed as half life; format: ADME; conditions: liver microsomes
[34] = biological target: T1, Protein ENL (Homo sapiens); assay: Binding affinity to ENL YEATS domain (unknown origin) expressed in HEK293 cells incubated for 2 hrs by NanoBRET assay; format: cell-based
[35] = system: MOLM-13; assay: Cytotoxicity against human MOLM-13 cells assessed as cell viability incubated for 8 days by CCK-8 assay; format: functional; conditions: time 8.0 day
[36] = system: MV4-11; assay: Cytotoxicity against human MV4-11 cells assessed as cell viability incubated for 8 days by CCK-8 assay; format: functional; conditions: time 8.0 day
[37] = biological target: T1, Protein ENL (Homo sapiens); assay: Inhibition of ENL YEATS domain (unknown origin) (1 to 148 residues) preincubated with compound for 1 hr followed by alpha-bead addition and measured after 30 mins under dark condition by Alphascreen assay; conditions: time 90.0 min

- Stability [1]: > 60%
Structure (SMILES): C[C@H]1CCCN1Cc1cc2cnc(NC(=O)c3ccc4nncn4c3)cc2[nH]1
- CC50 at 192 h [2]: > 64 µM
- Activity [3]: inactive

Structure (SMILES): CC(C)C1CCN1Cc1ccc(CNC(=O)c2ccc3nncn3c2)cc1 (configuration not stated)
- Activity [4]: Active
- Activity [5]: Non-toxic
- Activity [6]: inactive
- Activity [7]: Non-toxic
- Activity [8]: Active
- Activity [9]: Non-toxic
- half-life [10]: 1.85 h
- Activity [11]: Active
- Stability [12]: 95.58%
- Activity [13]: Active
- Activity [14]: Active
- Activity [15]: Non-toxic
- Activity [16]: Active
- Activity [17]: Non-toxic
- Activity [18]: Active
- Activity [19]: Active
- Activity [20]: Active
- Activity [21]: Active
- Activity [22]: Active
- Activity [23]: Active
- Activity [24]: Active
- Stability [1]: > 60%
- CC50 [25]: > 64 µM
- Activity [26]: Non-toxic
- Activity [3]: inactive
- Activity [27]: Active
- Activity [28]: Active
- Activity [29]: Active
- Activity [30]: Active
- Activity [31]: Active
- Activity [32]: Active

- half-life [33]: 9.3 min
Structure (SMILES): O=C(NC1CCC1)c1ccc2nc(-c3cccc(NS(=O)(=O)NCCN4CCCCC4)c3)cn2c1

- Activity [34]: Active
Structure (SMILES): O=C(CCC1=[N+]2C(=Cc3ccc(-c4ccc[nH]4)n3[B-]2(F)F)C=C1)NCCCCSc1ccc(CNC(=O)c2ccc3nncn3c2)cc1

Structure (SMILES): O=C(NCc1ccc(CNc2ncc(F)cn2)cc1)c1ccc2nncn2c1
- Activity [35]: inactive
- Activity [21]: Active
- Activity [36]: inactive
- Activity [29]: Active

- inhibition [37]: Active
Structure (SMILES): O=C(NCc1ccc(CN2CCOCC2)cc1)c1ccc2nncn2c1

- Stability [12]: 94.94%
- Stability [1]: > 60%
Structure (SMILES): O=C(NCc1cccc(CN2CCC2)c1)c1ccc2nncn2c1
- Activity [35]: inactive
- Activity [21]: Active
- Activity [36]: inactive
- Activity [29]: Active
